The nature of data set [1]: Anti cancer activity was determined as lethal dose. Conditions: mouse, in vivo. The data set is classed as organism-based.
For the next data set, the species on record is Mus musculus. Put plainly: Anti cancer activity was determined as effective dose. Type of data set: functional.

Results on nine compounds are retold here after ChEMBL document CHEMBL1126692, “Structure-activity relationships for mitomycins. Application of the distance and charge analysis method” (J Med Chem, 1993).

Usually LD50 stands for the dose expected to kill half of the subjects tested. Read a low LD50 as a more toxic substance. Broadly, the ED50 is the dose that gives a 50% effect, or the effect in half of the subjects. Read a low ED50 as an effect at a small dose.

Take `COC1=C(C)C(=O)C2=C(C1=O)[C@@H](COC(N)=O)[C@@]1(OC)[C@H]3N[C@H]3CN21` [MITOMYCIN A]: the LD50 in data set [1] turned out to be 2.1 mg/kg. It took a dose of 1.1 mg/kg to reach the 50% effect level in the data set listed under Mus musculus (ED50).
For `C=C1C2=C(C(=O)C(C)=C(OC)C2=O)N2C[C@@H]3N[C@@H]3[C@]12OC`, in that order: 13 mg/kg and 7.5 mg/kg.
Compound `C=C1C2=C(C(=O)C(C)=C(OC)C2=O)N2C[C@H]3[C@H](N3C)[C@]12OC` (some centres not stated) [MITOMYCIN G] had an LD50 in data set [1] of 22 mg/kg. In the data set filed under Mus musculus, this compound registered an ED50 of 35 mg/kg.
For `CO[C@@]12[C@H](COC(N)=O)C3=C(C(=O)C(C)=C(N)C3=O)N1C[C@H]1[C@@H]2N1C` (some centres not stated) [PORFIROMYCIN], in that order: 57 mg/kg and 22 mg/kg.
For `C=C1C2=C(C(=O)C(C)=C(N)C2=O)N2C[C@H]3[C@H](N3C)[C@]12O` (some centres not stated) [MITOMYCIN Z], in that order: 210 mg/kg and 82 mg/kg.
For `C=C1C2=C(C(=O)C(C)=C(N)C2=O)N2C[C@@H]3N[C@@H]3[C@]12OC`, in that order: 75 mg/kg and 18 mg/kg.
With `CO[C@@]12[C@H](COC(N)=O)C3=C(C(=O)C(C)=C(N)C3=O)N1C[C@@H]1N[C@@H]12` [MITOMYCIN], in the data set filed under Mus musculus, the ED50 turned out to be 4.4 mg/kg.
For the compound `C=C1C2=C(C(=O)C(C)=C(N)C2=O)N2C[C@H]3[C@H](N3C)[C@]12OC` (some centres not stated) [MITOMYCIN K], the median lethal dose (LD50) in data set [1] came to 130 mg/kg. For the same compound, the ED50 in the data set listed under Mus musculus worked out at 100 mg/kg.
For `C=C1C2=C(C(=O)C(C)=C(OC)C2=O)N2C[C@H]3[C@H](N3C)[C@]12O` (some centres not stated) [MITOMYCIN H], in that order: 12 mg/kg and 6.8 mg/kg.
